According to the CheMixHub ionic liquid set:
Values joined by “and” are separate entries in the source; they are usually repeats but may differ in a detail not shown here. Equal entries are not always repeated.

Test: xn = mol fraction of the nth substance listed
Conditions: for electrical conductivity: 101.3 kPa; for viscosity: 101 kPa

CCCCCC[n+]1ccn(C)c1.[Cl-] + OC[C@H]1O[C@@](CO)(O[C@H]2O[C@H](CO)[C@@H](O)[C@H](O)[C@H]2O)[C@@H](O)[C@@H]1O + O
298.15 K
Conditions | electrical conductivity
x2 = 0, x1 = 4.23e-06 | 0.00276 S/m
x2 = 0, x1 = 7.11e-06 | 0.00451 S/m
x2 = 0, x1 = 1.01e-05 | 0.00631 S/m
x2 = 0, x1 = 1.293e-05 | 0.008 S/m
x2 = 0, x1 = 1.551e-05 | 0.00953 S/m
x2 = 0, x1 = 1.836e-05 | 0.01121 S/m
x2 = 0, x1 = 2.116e-05 | 0.0129 S/m
x2 = 0, x1 = 2.393e-05 | 0.0145 S/m
x2 = 0, x1 = 2.652e-05 | 0.016 S/m
x2 = 0, x1 = 2.919e-05 | 0.0175 S/m
x2 = 0.003591, x1 = 8.04e-06 | 0.00433 S/m
x2 = 0.003591, x1 = 1.174e-05 | 0.00611 S/m
x2 = 0.003591, x1 = 1.526e-05 | 0.00778 S/m
x2 = 0.003591, x1 = 1.864e-05 | 0.00936 S/m
x2 = 0.003591, x1 = 2.202e-05 | 0.0109 S/m
x2 = 0.003591, x1 = 2.53e-05 | 0.01242 S/m
x2 = 0.003591, x1 = 2.853e-05 | 0.0139 S/m
x2 = 0.003591, x1 = 3.177e-05 | 0.01532 S/m
x2 = 0.003591, x1 = 3.49e-05 | 0.0167 S/m
x2 = 0.003591, x1 = 3.779e-05 | 0.018 S/m
x2 = 0.007156, x1 = 6.71e-06 | 0.00314 S/m
x2 = 0.007156, x1 = 1.012e-05 | 0.00459 S/m
x2 = 0.007156, x1 = 1.35e-05 | 0.00603 S/m
x2 = 0.007156, x1 = 1.699e-05 | 0.00749 S/m
x2 = 0.007156, x1 = 2.028e-05 | 0.00888 S/m
x2 = 0.007156, x1 = 2.319e-05 | 0.0101 S/m
x2 = 0.007156, x1 = 2.608e-05 | 0.01131 S/m
x2 = 0.007156, x1 = 2.915e-05 | 0.0126 S/m
x2 = 0.007156, x1 = 3.212e-05 | 0.0138 S/m
x2 = 0.007156, x1 = 3.545e-05 | 0.01517 S/m
x2 = 0.0107, x1 = 7.99e-06 | 0.00313 S/m
x2 = 0.0107, x1 = 1.176e-05 | 0.00442 S/m
x2 = 0.0107, x1 = 1.521e-05 | 0.00559 S/m
x2 = 0.0107, x1 = 1.87e-05 | 0.00676 S/m
x2 = 0.0107, x1 = 2.207e-05 | 0.00787 S/m
x2 = 0.0107, x1 = 2.533e-05 | 0.00894 S/m
x2 = 0.0107, x1 = 2.851e-05 | 0.00998 S/m
x2 = 0.0107, x1 = 3.135e-05 | 0.0109 S/m
x2 = 0.0107, x1 = 3.442e-05 | 0.0119 S/m
x2 = 0.0107, x1 = 3.724e-05 | 0.0128 S/m
x2 = 0.01421, x1 = 1.053e-05 | 0.00345 S/m
x2 = 0.01421, x1 = 1.542e-05 | 0.00495 S/m
x2 = 0.01421, x1 = 2.022e-05 | 0.00641 S/m
x2 = 0.01421, x1 = 2.485e-05 | 0.00781 S/m
x2 = 0.01421, x1 = 2.901e-05 | 0.00905 S/m
x2 = 0.01421, x1 = 3.286e-05 | 0.0102 S/m
x2 = 0.01421, x1 = 3.675e-05 | 0.01135 S/m
x2 = 0.01421, x1 = 4.055e-05 | 0.0125 S/m
x2 = 0.01421, x1 = 4.424e-05 | 0.0136 S/m
x2 = 0.01421, x1 = 4.811e-05 | 0.0147 S/m
x2 = 0.0177, x1 = 9.25e-06 | 0.00262 S/m
x2 = 0.0177, x1 = 1.338e-05 | 0.0037 S/m
x2 = 0.0177, x1 = 1.736e-05 | 0.00474 S/m
x2 = 0.0177, x1 = 2.112e-05 | 0.00571 S/m
x2 = 0.0177, x1 = 2.447e-05 | 0.00658 S/m
x2 = 0.0177, x1 = 2.813e-05 | 0.00751 S/m
x2 = 0.0177, x1 = 3.139e-05 | 0.00835 S/m
x2 = 0.0177, x1 = 3.466e-05 | 0.00918 S/m
x2 = 0.0177, x1 = 3.742e-05 | 0.00987 S/m
x2 = 0.0177, x1 = 4.046e-05 | 0.0106 S/m
x2 = 0.02116, x3 = 0.9787 | 0.01832 S/m
x2 = 0.02116, x3 = 0.9788 | 0.014 S/m and 0.0154 S/m and 0.0169 S/m

O=C([O-])CC(O)(CC(=O)[O-])C(=O)[O-].[NH4+].[NH4+].[NH4+] + CC[n+]1ccn(C)c1.O=S(=O)([O-])O + O
viscosity [mPa·s]
Conditions | x1 = 0.0003657, x2 = 0 | x1 = 0.0007347, x2 = 0 | x1 = 0.001087, x2 = 0 | x1 = 0.001443, x2 = 0 | x1 = 0.00179, x2 = 0 | x1 = 0.002235, x2 = 0 | x1 = 0.00271, x2 = 0
293.15 K | 1.022 | 1.043 | 1.063 | 1.083 | 1.102 | 1.127 | 1.153
298.15 K | 0.923 | 0.939 | 0.953 | 0.965 | 0.976 | 0.989 | 1.002
303.15 K | 0.829 | 0.846 | 0.859 | 0.872 | 0.883 | 0.897 | 0.911
308.15 K | 0.75 | 0.768 | 0.782 | 0.795 | 0.807 | 0.822 | 0.837
313.15 K | 0.684 | 0.702 | 0.717 | 0.731 | 0.744 | 0.76 | 0.776
